{"source": "patent US7282518B2", "about": "“Benzimidazole compounds for modulating IgE and inhibiting cellular proliferation” (Avanir Pharmaceuticals, priority 2001, dated 2007)", "key": {"[1]": {"tested_on": "tumor lines derived from a variety of tissues", "assay": "Proliferation of a battery of tumor lines from a variety of tissues", "format": "cell-based, mostly human", "settings": "in vitro", "procedure": "(§1) A variety of experiments were performed in an effort to determine the effect of the benzimidazole compounds on cellular proliferation. These experiments ultimately measured ^3H-thymidine incorporation into proliferating cell DNA. The specific procedure varied with the cells and the stimuli. Cells derived from mouse spleen were cultured at 3 million per ml; cell lines were seeded at 0.1 to 1 million per ml. Splenic B cells were isolated by T cell depletion and stimulated with phorbol myristate acetate (PMA) (10 ng/ml) plus ionomycin (100 nM), or IL-4 (10 ng/ml) plus anti-CD40 Ab (100 ng/ml). T cells were depleted prior to culture by incubating spleen cells first with a cocktail of anti-Thyl ascites (10%), anti-CD4 Ab (0.5 μg/ml) and anti-CD8 Ab (0.5 μg/ml), followed by guinea pig complement (adsorbed). Cell lines were unstimulated or stimulated with Human Epidermal Growth Factor (EGF) (100 ng/ml). All cells were cultured in 96-well plates for 2–3 days and pulsed for 6 to 14 hours with 50 μl of 3H-thymidine (50 μCi/ml). A similar approach was used to establish selectivity of the anti-proliferative activity by testing a battery of tumor lines derived from a variety of tissues, mostly human in origin. An attempt was made to generate proliferation data from at least 2 cell lines from each tissue selected. […]"}, "cytokine release": {"tested_on": "cytokine release", "assay": "ConA-stimulated cytokine release", "format": "cell-based"}, "Splenic B cells": {"tested_on": "Splenic B cells", "assay": "Spleen cell / splenic B cell proliferation, 3H-thymidine incorporation", "format": "cell-based, mouse", "procedure": "(§2) Spleen cell cultures were established from naive BALB/c mice and incubated for 4 days in the presence of stimulus and drug. Cultures were pulsed for 4 hours with 3H-thymidine and harvested. A variety of experiments were performed in an effort to determine the effect of the benzimidazole compounds on cellular proliferation. These experiments ultimately measured ^3H-thymidine incorporation into proliferating cell DNA. The specific procedure varied with the cells and the stimuli. Cells derived from mouse spleen were cultured at 3 million per ml; cell lines were seeded at 0.1 to 1 million per ml. Splenic B cells were isolated by T cell depletion and stimulated with phorbol myristate acetate (PMA) (10 ng/ml) plus ionomycin (100 nM), or IL-4 (10 ng/ml) plus anti-CD40 Ab (100 ng/ml). T cells were depleted prior to culture by incubating spleen cells first with a cocktail of anti-Thyl ascites (10%), anti-CD4 Ab (0.5 μg/ml) and anti-CD8 Ab (0.5 μg/ml), followed by guinea pig complement (adsorbed). Cell lines were unstimulated or stimulated with Human Epidermal Growth Factor (EGF) (100 ng/ml). All cells were cultured in 96-well plates for 2–3 days and pulsed for 6 to 14 hours with 50 μl of 3H-thymidine (50 μCi/ml)."}, "ER-positive cell lines": {"tested_on": "ER-positive cell lines", "assay": "Proliferation of ER-positive breast cancer cell lines", "format": "cell-based", "settings": "in vitro", "procedure": "as §1"}, "[2]": {"tested_on": "EGF-responsive cell lines", "assay": "Proliferation of EGF-responsive (ER-negative/EGFR-positive) breast cancer cell lines", "format": "cell-based", "settings": "in vitro", "procedure": "as §1"}, "[3]": {"tested_on": "murine M12.4.1 lymphoma cells", "assay": "M12.4.1 lymphoma cell proliferation, 3H-thymidine incorporation", "format": "cell-based", "procedure": "as §2, with “A” for “Spleen cell cultures were established from naive BALB/c mice and incubated for 4 days in the presence of stimulus and drug. Cultures were pulsed for 4 hours with 3H-thymidine and harvested. A”, “μCi/ml). In tumor cells, the results with splenic lymphocytes led to a further analysis of cellular proliferation by measuring the growth of tumor cells in the presence of these drugs. The initial analysis was performed with murine M12.4.1 lymphoma cells, either un-stimulated or stimulated with IL-4/anti-CD40 Ab. […]” for “μCi/ml).”"}, "IgE responses": {"tested_on": "IgE responses", "assay": "In vitro IgE responses to IL-4/anti-CD40 Ab", "format": "cell-based"}}, "data": [{"molecule": "O=C(Nc1ccccn1)c1ccc2[nH]c(-c3ccc(NC(=O)C45C[C@H]6C[C@@H](C4)C[C@@H](C5)C6)cc3)nc2c1", "note": "[Compound I.82]", "values": [{"measurement": "sensitivity of tumor cell lines (proliferation)", "setting": "[1]", "result": "a number of tumor cell lines are sensitive"}, {"measurement": "ConA-stimulated cytokine release", "setting": "cytokine release", "result": "inhibition"}, {"measurement": "anti-proliferative activity to T and B lymphocytes exposed to a variety of immunogenic stimuli", "setting": "Splenic B cells; in vitro", "result": "highly potent"}, {"measurement": "spleen cell proliferation responses (FIG. 1)", "setting": "Splenic B cells; naive BALB/c mice, 4 days with stimulus and drug, 4 hours 3H-thymidine pulse", "result": "suppression of spleen cell proliferation responses"}, {"measurement": "B cell proliferation response to IL-4/anti-CD40 Ab", "setting": "Splenic B cells; spleen cells, IL-4 (10 ng/ml) plus anti-CD40 Ab (100 ng/ml)", "result": "suppressed"}, {"measurement": "B cell proliferation response to PMA/ionomycin", "setting": "Splenic B cells; spleen cells, PMA (10 ng/ml) plus ionomycin (100 nM)", "result": "suppressed"}, {"measurement": "number of ER-positive cell lines potently inhibited", "setting": "ER-positive cell lines", "result": "2 of the 5"}, {"measurement": "proliferation of all EGF-responsive cell lines", "setting": "[2]", "result": "potently inhibited"}, {"measurement": "proliferation of M12.4.1 cells, potency", "setting": "[3]; cultured with IL-4/anti-CD40 Ab", "result": "increased"}, {"measurement": "proliferation of M12.4.1 cells", "setting": "[3]; un-stimulated", "result": "suppressed the proliferation of M12.4.1 cells but with lower potency"}, {"measurement": "in vitro IgE responses to IL-4/anti-CD40 Ab", "setting": "IgE responses", "result": "suppressed in vitro IgE responses"}]}]}
